In the NIST ThermoML archive (doi:10.1021/je030161t):
± gives the expanded uncertainty stated by the source.

How the values were obtained:
[1] = 298.15 K; 101.33 kPa; Liquid; Vibrating tube method
[2] = excess molar enthalpy (molar enthalpy of mixing); xn = mol fraction of the nth substance listed; conditions: 298.15 K, 101.3 kPa, Liquid, Flow calorimetry

CCCCCCCC [octane]
mass density [1]: 698.72 ± 0.4 kg/m3

CC(C)OC(C)C [diisopropyl ether]
mass density [1]: 718.7 ± 0.41 kg/m3

CCC(C)CC [3-methylpentane] + CC(C)OC(C)C
excess molar enthalpy ([2]; x2 = 0.05): 0.0101 ± 0.000263 kcal/mol
excess molar enthalpy ([2]; x2 = 0.1): 0.0188 ± 0.000335 kcal/mol
excess molar enthalpy ([2]; x2 = 0.1499): 0.0262 ± 0.000382 kcal/mol
excess molar enthalpy ([2]; x2 = 0.2): 0.0325 ± 0.00043 kcal/mol
excess molar enthalpy ([2]; x2 = 0.2503): 0.0372 ± 0.000478 kcal/mol
excess molar enthalpy ([2]; x2 = 0.2998): 0.041 ± 0.000502 kcal/mol
excess molar enthalpy ([2]; x2 = 0.3501): 0.0439 ± 0.000526 kcal/mol
excess molar enthalpy ([2]; x2 = 0.3997): 0.046 ± 0.00055 kcal/mol
excess molar enthalpy ([2]; x2 = 0.45): 0.0472 ± 0.00055 kcal/mol
excess molar enthalpy ([2]; x2 = 0.5003): 0.0472 ± 0.00055 kcal/mol
excess molar enthalpy ([2]; x2 = 0.5502): 0.0463 ± 0.00055 kcal/mol
excess molar enthalpy ([2]; x2 = 0.5998): 0.0448 ± 0.000526 kcal/mol
excess molar enthalpy ([2]; x2 = 0.65): 0.0422 ± 0.000526 kcal/mol
excess molar enthalpy ([2]; x2 = 0.7002): 0.0387 ± 0.000478 kcal/mol
excess molar enthalpy ([2]; x2 = 0.7501): 0.0343 ± 0.000454 kcal/mol
excess molar enthalpy ([2]; x2 = 0.8003): 0.029 ± 0.000406 kcal/mol
excess molar enthalpy ([2]; x2 = 0.85): 0.0224 ± 0.000359 kcal/mol
excess molar enthalpy ([2]; x2 = 0.9): 0.0158 ± 0.000311 kcal/mol
excess molar enthalpy ([2]; x2 = 0.95): 0.00855 ± 0.000263 kcal/mol

CCCCCCCCCC [decane]
mass density [1]: 726.3 ± 0.41 kg/m3

CCC(C)CC [3-methylpentane]
mass density [1]: 659.94 ± 0.4 kg/m3
